Reference: ChEMBL document CHEMBL5380869, “Discovery of an Oral, Beyond-Rule-of-Five Mcl-1 Protein-Protein Interaction Modulator with the Potential of Treating Hematological Malignancies” (J Med Chem, 2023)
≈ marks a conversion by molar mass, not a printed value.

What was measured:
[1] = Inhibition of terbium-labelled Mcl-1 (unknown origin)/Bim BH3 peptide (H3N-(C/Cy5Mal)-WIAQELRRIGDEFN-OH) (unknown origin) interaction assessed as displacement of Cy5-labeled Bim BH3 peptide by TR-HTRF assay
[2] = Thermodynamic (equilibrium) solubility of the compound measured after 3 days agitation in pH 2 buffer by LC-MS/MS analysis; format: physicochemical; settings: time 3 day, read-out: Therm_solubility
[3] = Intrinsic clearance in human liver microsomes measured upto 60 mins by LC-MS/MS analysis; format: ADME, Microsome; settings: read-out: CLH
[4] = Lipophilicity, CHI logD of compound at pH 7.4 by UPLC-TOF analysis; format: physicochemical; settings: buffer
[5] = Thermodynamic (equilibrium) solubility of the compound measured after 3 days agitation in pH 7 buffer by LC-MS/MS analysis; format: physicochemical; settings: time 3 day, read-out: Therm_solubility
[6] = Cardiotoxicity risk in human iPSC-CM assessed as calcium transients at 3 uM by CTCM assay; format: toxicity, cell-based
MOLP-8 = test: Induction apoptosis in human MOLP8 cells assessed as cell killing measured after 2 hrs by Caspase-Glo 3/7 Assay; format: functional, cell-based; settings: MOLP-8, 2 h
[7] = Cardiotoxicity risk in human iPSC-CM assessed as calcium transients at 1 uM by CTCM assay; format: toxicity, cell-based
[8] = Intrinsic clearance in mouse liver microsomes measured upto 60 mins by LC-MS/MS analysis; format: ADME, Microsome; settings: read-out: CLH

| SMILES | Ki [1] | solubility thermodynamic at 72 h [2] | microsomal CLint [3] | chromatographic logD [4] | solubility thermodynamic at 72 h [5] | microsomal CLint [8] | Activity [6] | AC50 (MOLP-8) | Activity [7] |
| --- | --- | --- | --- | --- | --- | --- | --- | --- | --- |
| C[C@@H]1[C@@H](C)C/C=C(\F)[C@@](O)(CC#N)[C@@H]2OCC[C@H]2CN2C[C@@]3(CCCc4cc(Cl)ccc43)COc3ccc(cc32)C(=O)NS1(=O)=O | 2.36 nM | < 0.5 µM | < 7.7 µL/min/mg | 3.1 | 0.3 µM (≈ 0.202 µg/mL) | < 7.7 µL/min/mg | – | > 5000 nM | – |
| C/C1=C\C[C@H](C)[C@@H](C)S(=O)(=O)NC(=O)c2ccc3c(c2)N(C[C@@H]2CCO[C@H]2[C@H]1CO)C[C@@]1(CCCc2cc(Cl)ccc21)CO3 | 0.52 nM | < 0.1 µM | < 7.7 µL/min/mg | 2.8 | < 0.1 µM | 27 µL/min/mg | – | 752 nM | – |
| COc1nn(C)cc1C(=O)N[S@]1(=O)=NC(=O)c2ccc3c(c2)N(C[C@@H]2CCO[C@H]2[C@@H](OC)/C(F)=C/C[C@H](C)C1)C[C@@]1(CCCc2cc(Cl)ccc21)CO3 | 0.25 nM | < 0.1 µM | 16 µL/min/mg | 3 | 202 µM (≈ 156 µg/mL) | 9.3 µL/min/mg | Non-Toxic | 2420 nM | Non-Toxic |
| CO[C@@H]1/C(F)=C/C[C@H](C)[C@@H](C)S(=O)(=O)NC(=O)c2ccc3c(c2)N(C[C@@H]2CCO[C@H]21)C[C@@]1(CCCc2cc(Cl)ccc21)CO3 | 1.13 nM | < 0.5 µM | < 7.7 µL/min/mg | 3 | 11.2 µM (≈ 7.25 µg/mL) | 21 µL/min/mg | – | 1120 nM | – |
| CO[C@H]1/C(F)=C/C[C@H](C)[C@@H](C)S(=O)(=O)NC(=O)c2cnc3c(n2)N(C[C@@H]2CCO[C@H]21)C[C@@]1(CCCc2cc(Cl)ccc21)CO3 | 5.29 nM | < 0.1 µM | 98 µL/min/mg | 2.8 | 143 µM (≈ 92.8 µg/mL) | < 7.7 µL/min/mg | – | 1220 nM | – |

Now from value to compound, other results behind:

| Ki [1] | solubility thermodynamic at 72 h [2] | microsomal CLint [3] | chromatographic logD [4] | solubility thermodynamic at 72 h [5] | microsomal CLint [8] | SMILES | Activity [6] | AC50 (MOLP-8) | Activity [7] |
| --- | --- | --- | --- | --- | --- | --- | --- | --- | --- |
| 5.1 nM | 0.2 µM (≈ 0.154 µg/mL) | < 7.7 µL/min/mg | 2.9 | 188 µM (≈ 145 µg/mL) | < 7.7 µL/min/mg | COc1nn(C)cc1C(=O)N[S@@]1(=O)=NC(=O)c2ccc3c(c2)N(C[C@@H]2CCO[C@H]2[C@H](OC)/C(F)=C/C[C@H](C)C1)C[C@@]1(CCCc2cc(Cl)ccc21)CO3 | Non-Toxic | > 5000 nM | Non-Toxic |
| 0.048 nM | 544 µM (≈ 503 µg/mL) | < 7.7 µL/min/mg | 3 | 518 µM (≈ 479 µg/mL) | < 7.7 µL/min/mg | COc1nn(C)cc1C(=O)N[S@]1(=O)=NC(=O)c2ccc3c(c2)N(C[C@@H]2CCO[C@H]2[C@@](CN2CCN4CCOC[C@@H]4C2)(OC)/C(F)=C/C[C@H](C)C1)C[C@@]1(CCCc2cc(Cl)ccc21)CO3 | Non-Toxic | 424 nM | Non-Toxic |
| 0.72 nM | < 0.1 µM | 16 µL/min/mg | 2.6 | 53 µM (≈ 32.6 µg/mL) | 28 µL/min/mg | C[C@@H]1[C@@H](C)C/C=C/[C@H](O)[C@@H]2OCC[C@H]2CN2C[C@@]3(CCCc4cc(Cl)ccc43)COc3ccc(cc32)C(=O)NS1(=O)=O | – | 752 nM | – |
| 0.67 nM | < 0.1 µM | < 7.7 µL/min/mg | 3.7 | < 0.1 µM | 18 µL/min/mg | COC[C@H]1/C(C)=C/C[C@H](C)[C@@H](C)S(=O)(=O)NC(=O)c2ccc3c(c2)N(C[C@@H]2CCO[C@H]21)C[C@@]1(CCCc2cc(Cl)ccc21)CO3 | – | 1820 nM | – |
